For 23 compounds, EC50 results are on record in patent publication US8703805B2 (Exelixis Patent Company LLC, priority 2005, dated 2014).

By EC50 is commonly meant the concentration needed to bring the measured effect to its halfway point.

Several values for one entry are separate records, joined by “and”; a condition that tells them apart may be missing. Identical values can stand only once. Bounds are passed on as bounds.

The subject of the assay is LXRα and/or LXRβ. Description: LXR/LXRE co-transfection assay (luciferase reporter, CV-1 cells). It counts as cell-based, human. As to conditions: IC50 or EC50 for LXR (LXRα and/or LXRβ, not distinguished), tested as described in Example 109, CV-1 cells. In short, it runs like this: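 Transient co-transfection of CV-1 cells with full-length human LXRα or LXRβ plus RXRα expression plasmids and an LXREx1-Tk-luciferase reporter; compounds (10 μM screen, ≤1% DMSO) incubated 20 h at 37 °C. Luminescence read after lysis; EC50/IC50 from 8-point half-log curves, efficacy relative to a high control or DMSO.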
In general terms: Reporter assays use an easily measured gene product as a stand-in for the process of interest.
With `O=C(c1ccc(-c2cc(C(F)(F)F)nn2-c2ccccc2Cl)cc1)N1CCCC1CO` (centres unmarked) [Example 1000, [1-({4-[1-(2-chlorophenyl)-3-(trifluoromethyl)-1H-pyrazol-5-yl]phenyl}carbonyl)pyrrolidin-2-yl]methanol], the EC50 was 1000 to 10000 nM.

In turn, `CN1CCC(N(C(=O)c2ccc(-c3cc(C(F)(F)F)nn3-c3ccccc3Cl)cc2)C2CC2)CC1` [Example 1029, 4-[1-(2-chlorophenyl)-3-(trifluoromethyl)-1H-pyrazol-5-yl]-N-cyclopropyl-N-(1-methylpiperidin-4-yl)benzamide] had an EC50 of 1000 to 10000 nM.

With `CS(=O)(=O)c1cccc(-c2ccc(-c3cc(C(=O)N4CCCC4)nn3-c3ccccc3Cl)s2)c1` [Example 1129, 1-(2-chlorophenyl)-5-{5-[3-(methylsulfonyl)phenyl]-2-thienyl}-3-(pyrrolidin-1-ylcarbonyl)-1H-pyrazole], the EC50 was less than 1000 nM.

`CS(=O)(=O)c1cccc(-c2ccc(-c3cc(C(F)(F)F)nn3-c3ccccc3S(N)(=O)=O)s2)c1` [Example 1131, 2-[5-{5-[3-(methylsulfonyl)phenyl]-2-thienyl}-3-(trifluoromethyl)-1H-pyrazol-1-yl]benzenesulfonamide] came in with an EC50 of less than 1000 nM.

`CS(=O)(=O)c1cccc(-c2ccc(-c3cc(C(=O)Nc4cccc(C(F)(F)F)c4)nn3-c3ccccc3Cl)s2)c1` [Example 1133, 1-(2-chlorophenyl)-5-{5-[3-(methylsulfonyl)phenyl]-2-thienyl}-N-[3-(trifluoromethyl)phenyl]-1H-pyrazole-3-carboxamide] displayed an EC50 of 1000 to 10000 nM.

In turn, `CC(C)(C#N)c1cc(-c2ccc(-c3cccc(S(C)(=O)=O)c3)s2)n(-c2ccccc2Cl)n1` [Example 1134, 2-[1-(2-chlorophenyl)-5-{5-[3-(methylsulfonyl)phenyl]-2-thienyl}-1H-pyrazol-3-yl]-2-methylpropanenitrile] came in with an EC50 of less than 1000 nM.

Regarding `CS(=O)(=O)c1cccc(-c2ccc(-c3cc(Cc4nnn[nH]4)nn3-c3ccccc3Cl)s2)c1` [Example 1136, 5-{[1-(2-chlorophenyl)-5-{5-[3-(methylsulfonyl)phenyl]-2-thienyl}-1H-pyrazol-3-yl]methyl}-1H-tetrazole], the concentration for a half-maximal effect (EC50) was in the range of 1000 to 10000 nM.

On to `NS(=O)(=O)c1cccc(-c2ccc(-c3cc(C(F)(F)F)nn3-c3ccccc3Cl)cc2)c1` [Example 1137, 4′-[1-(2-chlorophenyl)-3-(trifluoromethyl)-1H-pyrazol-5-yl]biphenyl-3-sulfonamide], for which the EC50 is less than 1000 nM.

Turning to `COC(=O)c1cc(-c2cc(C(F)(F)F)nn2-c2ccccc2Cl)ccc1-c1cccc(S(C)(=O)=O)c1` [Example 1138, methyl 4-[1-(2-chlorophenyl)-3-(trifluoromethyl)-1H-pyrazol-5-yl]-3′-(methylsulfonyl)biphenyl-2-carboxylate], the concentration for a half-maximal effect (EC50) fell in the range of 1000 to 10000 nM.

For `CS(=O)(=O)c1cccc(-c2ccc(-c3cc(C(F)(F)F)nn3-c3ccccc3Cl)cc2C(=O)O)c1` [Example 1139, 4-[1-(2-chlorophenyl)-3-(trifluoromethyl)-1H-pyrazol-5-yl]-3′-(methylsulfonyl)biphenyl-2-carboxylic acid], the concentration for a half-maximal effect (EC50) was 1000 to 10000 nM and < 1000 nM.

Compound `CCN(CC)CCN(C)C(=O)c1cc(-c2ccc(-c3cccc(S(C)(=O)=O)c3)s2)n(-c2ccccc2Cl)n1` [Example 1140, 1-(2-chlorophenyl)-N-[2-(diethylamino)ethyl]-N-methyl-5-{5-[3-(methylsulfonyl)phenyl]-2-thienyl}-1H-pyrazole-5-carboxamide] came in with a 50% effective concentration (EC50) of 1000 to 10000 nM.

For `CS(=O)(=O)c1cccc(-c2ccc(-c3cc(C(F)(F)F)nn3-c3ccccc3Cl)cc2C(=O)N2CCOCC2)c1` [Example 1142, 4-({4-[1-(2-chlorophenyl)-3-(trifluoromethyl)-1H-pyrazol-5-yl]-3′-(methylsulfonyl)biphenyl-2-yl}carbonyl)morpholine], the 50% effective concentration (EC50) is 1000 to 10000 nM.

`CN(C)CCN(C)C(=O)c1cc(-c2ccc(-c3cccc(S(C)(=O)=O)c3)s2)n(-c2ccccc2Cl)n1` [Example 1144, 1-(2-chlorophenyl)-N-[2-(dimethylamino)ethyl]-N-methyl-5-{5-[3-(methylsulfonyl)phenyl]-2-thienyl}-1H-pyrazole-3-carboxamide] yielded a 50% effective concentration (EC50) of 1000 to 10000 nM.

In turn, `CCC(O)CS(=O)(=O)c1cccc(-c2ccc(-c3cc(C(F)(F)F)nn3-c3cc(Cl)ccc3Cl)s2)c1` (centres unmarked) [Example 1146, 1-[(3-{5-[1-(2,5-dichlorophenyl)-3-(trifluoromethyl)-1H-pyrazol-5-yl]-2-thienyl}phenyl)sulfonyl]butan-2-ol] showed an EC50 of less than 1000 nM.

Compound `CN(Cc1cc(-c2ccc(-c3cccc(S(C)(=O)=O)c3)s2)n(-c2ccccc2Cl)n1)Cc1ncco1` [Example 1147, 1-[1-(2-chlorophenyl)-5-{5-[3-(methylsulfonyl)phenyl]-2-thienyl}-1H-pyrazol-3-yl]-N-methyl-N-(1,3-oxazol-2-ylmethyl)methanamine] showed a concentration for a half-maximal effect (EC50) of less than 1000 nM.

Compound `CS(=O)(=O)c1cccc(-c2ccc(-c3cc(C(F)(F)F)nn3-c3ccccc3Cl)cc2CN2CCOCC2)c1` [Example 1148] came in with an EC50 of 1000 to 10000 nM.

On to `CS(=O)(=O)c1cc(-c2ccc(-c3cc(C(F)(F)F)nn3-c3ncccc3C(F)(F)F)s2)ccc1CO` [Example 1149, [2-(methylsulfonyl)-4-(5-{3-(trifluoromethyl)-1-[3-(trifluoromethyl)pyridin-2-yl]-1H-pyrazol-5-yl}-2-thienyl)phenyl]methanol], for which the EC50 is less than 1000 nM.

In the case of `CC(=O)c1cc(-c2ccc(-c3cccc(S(C)(=O)=O)c3)s2)n(-c2ccccc2Cl)n1` [Example 1150, 1-[1-(2-chlorophenyl)-5-{5-[3-(methylsulfonyl)phenyl]-2-thienyl}-1H-pyrazol-3-yl]ethanone], the EC50 was less than 1000 nM.

As for `CC(C)(N)c1cc(-c2ccc(-c3cccc(S(C)(=O)=O)c3)s2)n(-c2ccccc2Cl)n1` [Example 1151, 2-[1-(2-chlorophenyl)-5-{5-[3-(methylsulfonyl)phenyl]-2-thienyl}-1H-pyrazol-3-yl]propan-2-amine], the EC50 is 1000 to 10000 nM.

The compound `O=C(O)Cc1ccc(F)c(-c2ccc(-c3cc(C(F)(F)F)nn3-c3ncccc3C(F)(F)F)s2)c1` [Example 1152, [4-fluoro-3-(5-{3-(trifluoromethyl)-1-[3-(trifluoromethyl)pyridin-2-yl]-1H-pyrazol-5-yl}-2-thienyl)phenyl]acetic acid] returned a 50% effective concentration (EC50) of 1000 to 10000 nM.

For the compound `COC(=O)Cc1ccc(-c2ccc(-c3cc(C(F)(F)F)nn3-c3ncccc3C(F)(F)F)s2)c(C)c1` [Example 1153, methyl [3-methyl-4-(5-{3-(trifluoromethyl)-1-[3-(trifluoromethyl)pyridin-2-yl]-1H-pyrazol-5-yl}-2-thienyl)phenyl]acetate], the EC50 lay in the range of 1000 to 10000 nM.

`CN(CC(=O)O)C(=O)c1cc(-c2ccc(-c3cccc(S(C)(=O)=O)c3)s2)n(-c2ccccc2Cl)n1` [Example 1154, N-{[1-(2-chlorophenyl)-5-{5-[3-(methylsulfonyl)phenyl]-2-thienyl}-1H-pyrazol-3-yl]carbonyl}-N-methylglycine] gave a 50% effective concentration (EC50) of 1000 to 10000 nM.

For `Cc1cc(CC(=O)O)ccc1-c1ccc(-c2cc(C(F)(F)F)nn2-c2ncccc2C(F)(F)F)s1` [Example 1155, [3-methyl-4-(5-{3-(trifluoromethyl)-1-[3-(trifluoromethyl)pyridin-2-yl]-1H-pyrazol-5-yl}-2-thienyl)phenyl]acetic acid], the EC50 is 1000 to 10000 nM.
